From US20110230352A1, “TREATMENT PROCESS FOR A SUPERIOR PLANT IN ORDER TO CONTROL ITS GROWTH AND ARCHITECTURE” (INSTITUT NATIONAL DE LA RECHERCHE AGRONOMIQUE, priority 2008, published 2011)
“Also recorded” adds a separate entry of the source.

Columns and labels:
[1] = tested on: mutants rms1 (line M3T-884 from wild pea WT Térèse); test: Comparison of GR24, molecule ABC and sorgolactone by local application onto buds at node 4; assay type: in vivo; conditions: mutant rms1; 100 nM and 500 nM, 10 μl per bud; nine days after the treatment; FIG. 3
Method: A second experiment is carried out on mutants rms1 (line M3T-884 from wild pea WT Térèse) in order to compare on these mutants the effect of synthetic strigolactone GR24, of a synthetic molecule ABC from GR24, without any cycle D characteristic of strigolactone, and Sorgolactone, a natural strigolactone.
The plants used are obtained in the same manner as for the plants used in the first experiment.
The solution containing synthetic strigolactone GR24 at 0 nM, 100 nM and 500 nM (4% PEG 1450, 10% ethanol) is applied with the help of a micropipette onto the buds at the node 4 (N4), at the rate of 10 μl per bud.
(§1) The buds and/or ramifications at the first two plant nodes N1 and N2 are cut at the time of the treatment.
The size of the buds at the upper nodes (node N4) is measured nine days after the treatment. The results of the bud growth are illustrated in the chart in FIG. 3.

[2] = tested on: mutants rms1 (line M3T-988 from WT Térèse); test: Injection into the stem above node N3, size of bud at N5 (long-distance, dose-response); assay type: in vivo, pea; conditions: rms1 M3T-988; injected 1, 10, 100, 500 nM; eight days after the treatment; FIG. 6
Method: To this end, an experiment is carried out on mutants rms1 (line M3T-988 from WT Térèse) obtained in the same manner as for the mutants used in the preceding experiments.
The plants are treated by injecting the solution into the stem above the node N3. More precisely, a cotton thread is introduced into the plant stem with the help of needle and is dipped into the solution to be tested. The GR24 solution used (0 nM, 1 nM, 10 nM, 100 nM and 500 nM) were prepared by diluting in water GR24 solutions kept in acetone at different concentrations so that they have the same volume of acetone (10 μl of acetone in 20 ml of water).
as §1
The “untreated” plants correspond to control plants the ramifications N1 and N2 of which have been cut, but which have not received any injection.
The size of the buds at the node situated a distance above the injection zone (N5) is measured eight days after the treatment.

wild peas WT Térèse = test: Local application onto buds at node 2 of wild pea; assay type: in vivo; conditions: 500 nM, 10 μl per bud, eight days after the treatment, FIG. 4
Method: To this end, a third experiment is carried out on wild peas WT Térèse. The plants used are obtained in a identical manner as for the plants used in the first experiment.
The treatment is carried out 10 days after the seedling (stage with 4 to 5 leaves).
A solution containing synthetic strigolactone GR24 at 0 nM and 500 nM (4% PEG, 10% ethanol) is applied with the help of a micropipette onto the buds at the node 2 (N2), at the rate of 10 μl per bud.
The buds and/or ramifications at the first plant node N1 are cut at the time of the treatment.
The bud size at the node N2 is measured eight days after the treatment, the results being plotted in the chart in FIG. 4.

[3] = tested on: mutants rms1 (line WL5237 from WT Térèse); test: Decapitation after treatment of buds at node 3; assay type: in vivo, pea; conditions: 1000 nM, two applications, decapitated nine days after the treatment, measured seven days after decapitation, FIG. 7B
Method: A first experiment is carried out simultaneously on wild peas (line WT Parvus) and mutants rms1 (line WL5237 from […]). In this experiment, 18 seeds are used for each treatment, which are sowed in pots (2 plants per pot with a diameter of 15 cm) in a soil mixed with sand. The seedling is carried out under glass with natural light and with an extension of the light period of 18 h light/6 h night be means of incandescent bulbs (60 W).
In a first stage, the plants are treated by two successive applications, separated by a 24 hour interval, of a solution (2% PEG 3550, 50% ethanol) containing synthetic strigolactone GR24 at 0 nM or 1000 nM. The solution is applied with the help of a micropipette onto the buds at the node 3 (N3), at the rate of 10 μl per bud.
as §1
The size of the treated buds is measured seven days after the treatment. The chart in FIG. 7A illustrates the results obtained with the buds at the N3.
In a second stage, a first half of the treated mutant plants rms1 are decapitated just above the node 3, nine days after the treatment, the second half is left intact. The buds and/or ramifications at node 3 of the treated plants at 0 nM (which have not been repressed) are cut.
The bud size is measured seven days after the decapitation. […]

[4] = tested on: mutants rms1 (line WL5237 from wild pea WT Parvus); test: Local application onto buds at node 3 of plants of different ages; assay type: in vivo; conditions: 1000 nM applied on two days, 9 to 13 day-old plants, buds 0.2 to 1 mm at first treatment, three and seven days after, FIG. 5A
Method: A first experiment is carried out on mutants rms1 (line WL5237 from wild pea WT Parvus) in order to compare the effect of synthetic strigolactones GR24 on the size of the treated buds at the time of the treatment.
In this experiment, 20 seeds are used for each treatment, which are sowed in pots (2 plants per pot with a diameter of 15 cm) in a soil mixed to clay balls. The seedling is carried out under glass with a natural light and with an extension of the light period of 18 h light/6 h night by means of incandescent bulbs (60 W).
On the first day of treatment, a solution containing synthetic strigolactone GR24 at 0 nM and 1000 nM (4% PEG 1450, 10% ethanol) is applied with the help of a micropipette onto the buds at the node 3 (N3), at the rate of 10 μl per bud.
On the second day of treatment, a solution containing synthetic strigolactone GR24 at 0 nM and 1000 nM (4% PEG 1450, 10% ethanol) is applied with the help of a micropipette onto the same buds, at the rate of 10 μl per bud.
as §1
The first treatment is carried out on 9, 10, 11, 12 and 13 day-old plants (the seedling were spread out over five days).
The bud size at the node N3 is measured the day of the first treatment (J0) and three and seven days afterwards. The obtained results are illustrated in the charts in FIG. 5A.

[5] = tested on: mutants rms4 (line M3T-946 from wild pea WT Térèse); test: Local application of strigolactone onto axillary buds at node 4, bud growth; assay type: in vivo; conditions: mutant rms4; 100 nM, 10 μl per bud; eight days after the treatment; FIG. 2
Method: (§2) A first experiment is carried out simultaneously on mutants rms1 (line M3T-884 from wild pea WT Térèse) and rms4 (line M3T-946 from wild pea WT Térèse).
(§3) 9 seeds are used for each treatment; they are sowed in pots (3 plants per pot) in soil mixed to clay balls. The seedling is carried out under glass with a light period of 16 h light/8 h night.
(§4) The treatment is carried out 10 days after the seedling (Stage with 4 leaves).
(§5) A solution containing synthetic strigolactone GR24 dissolved in acetone at 0 nM and 100 nM (4% PEG 1450, 25% ethanol, 5^0/00 acetone) is applied with the help of a micropipette onto the buds at the node 4 (N4), at the rate of 10 μl per bud.
(§6) The buds and/or ramifications at the first two plant nodes N1 and N2 are cut for favoring the start of the buds at upper nodes.
(§7) The untreated plants correspond to the plants the buds and/or ramifications of which at nodes 1 and 2 have been cut but which have not received any treatment. The control “0 nM” corresponds to the plants treated with the same solution as for the treatment “500 nM” but without any strigolactones.

[6] = tested on: mutants rms1 (line M3T-884 from wild pea WT Térèse); test: as above; assay type: in vivo; conditions: mutant rms1; 100 nM, 10 μl per bud; eight days after the treatment; FIG. 2
Method: as §2, §3, §4, §5, §6, §7

[7] = tested on: wild pea (line WT Térèse) and mutant pea (line M3T-988 ccd8/rms1 from WT Térèse); test: Application through the roots in hydroponic solution, internodal length and ramification length; assay type: in vivo
Method: To this end, an experiment is carried out in a hydroponic solution in order to bring GR24 into the hydroponic solution through the roots.
In this experiment, wild pea seeds (line WT Térèse) and mutant pea seeds (line M3T-988 ccd8/rms1 from WT Térèse) are first sowed in sand. Eight days later, the resulting plants are brought into the hydroponic system in which the roots are dipped in the nutritive solution. Four days later, a GR24 solution (diastereo isomer no 1) is added to 1 μM in the 47 liters of nutritive solution (4.7 ml GR24 at 10 mM). In this experiment, the plants reach the stage with 3-4 nodes.
Then, the cotyledonal ramifications are removed. The ramifications at the nodes N1 and N2 are kept.
The observation is carried out seven days later after addition of GR24 in the solution.
FIG. 10 represents the internodal length measured 19 days later after the germination on treated and untreated wild plants on one hand and treated and untreated mutant plants on the other hand.
FIG. 11 represents the ramification length (ramifications 3 at node N4) measured 19 days later on treated and untreated wild plants on one hand and treated and untreated mutant plants on the other hand. The ramifications at nodes N1 and N2 have already started at the time of the addition of GR24.

SMILES	bud growth at node N4, comparison of effects [1]	concentration from which injection above N3 represses the growth of the bud at N5 [2]	bud size at the node N2 (wild peas WT Térèse)	bud size at N3 after decapitation of plants with buds first inhibited [3]	bud size at the node N3, sensitivity of buds of different ages [4]	bud growth at N4 [5]	bud growth at N4 [6]	internodal length, from internode N4-N5 ([7]; 1 μM in hydroponic solution through the roots, wild and rms1 mutant, 19 days after germination, FIG. 10)	ramification length / bud start ([7]; 1 μM in hydroponic solution through the roots, wild and rms1 mutant, measured 19 days later, FIG. 11)	internodal length, internodes N1-N2, N2-N3 and N3-N4 ([7]; 1 μM in hydroponic solution, internodes already developed before addition, FIG. 10)
CC1=C[C@H](O/C=C2/C(=O)O[C@@H]3C4=C(CCC[C@@H]4C)C[C@H]23)OC1=O [sorgolactone, Sorgolactone]	comparable effects	–	–	–	–	–	–	–	–	–
O=C1OC2c3ccccc3CC2/C1=C\O (stereo not drawn) [ABC]	less efficient than GR24 and sorgolactone	–	–	–	–	–	–	–	–	–
CC1=CC(O/C=C2/C(=O)OC3c4ccccc4CC23)OC1=O (stereo not drawn) [GR24]	comparable effects	≥ 10 nM	has also an action on the growth of the buds	able to start again when the plant is decapitated	all sensitive to the treatment	not repressed in a significant manner	strongly repressed; also recorded: inhibit the growth of said treated buds	has an effect only from the internode N4-N5	induces a reduction of the ramification length	has no action
